Series [1] relates to SUDHL6 xenograft tumor tissue. Put plainly: TBARS measurement in mouse tumor tissue from efficacy study. The series is classed as in vivo, NCG mice. On the procedure: NCG mice, 6-weeks old, were injected with 10 million SUDHLO-6 cells subcutaneously. The mice were treated after the tumor size reached 100 mm^3. Mice were separated randomly into treatment groups and dosed with 23 mg/kg IKE, 40 mg/kg IKE, 23 mg/kg IKE PEG-PLGA nanoparticles (equal to 700 mg/kg PEG-PLGA), vehicle 1 (based on volume), and vehicle 2 (700 mg/kg PEG-PLGA) once daily by IP for 14 days. Tumor volume was measured daily with electronic caliper and calculated using the formula: 0.5×length×width^2. 3 h after the final dosage, mice were euthanized with CO2 and tumor tissue was dissected, weighed, divided into 4-6 segments, frozen, and stored at −80° C. Tumor volume change was analyzed in Prism using one-way ANOVA. Tumor tissues were analyzed as described in the RT-qPCR, immunofluorescence, TBARS, and lipidomics sections below.
10-25 mg tumor tissue was placed into a 1.5 mL Eppendorf microfuge tube, and the sample was placed on dry ice until use. 20 μL/mg ice cold RIPA buffer with cocktail protease inhibitor (Roche) was added. The tumor tissue was homogenized at speed 5 for 30 sec using Bead Ruptor 4. The sample was centrifuged at 4° C. at 1,600×g for 10 min. The sample was kept on ice and the supernatant used for analysis. […] TBARS was measured using a TBARS Assay Kit (Cayman 700870) following the manufacture's protocol.

The nature of series [2]: IKE efficacy study, mouse weight. The series is classed as in vivo, NCG mice. The settings on record: 14 days, starting from day 9. As to the method: IKE was dissolved in 5% DMSO/95% HBSS at pH 4 to create a 4 mg/mL solution. 5% DMSO/95% HBSS at pH 4 was used as vehicle 1. IKE PEG-PLGA nanoparticles and unfunctionalized PEG-PLGA nanoparticles (without IKE loading) (vehicle 2) prepared with a NanoAssemblr were dialyzed with deionized water overnight, the water was changed at least twice. Dialyzed IKE-PEG-PLGA nanoparticles and unfunctional PEG-PLGA nanoparticles were concentrated by Amicon Ultra-15 Centrifugal Filter Units to create a solution with 80 mg/mL PEG-PLGA nanoparticles. All above solutions were sterilized by filter through a 0.2 μm syringe filter.
NCG mice, 6-weeks old, were injected with 10 million SUDHLO-6 cells subcutaneously. […] Tumor volume was measured daily with electronic caliper and calculated using the formula: 0.5×length×width^2. […] Tumor volume change was analyzed in Prism using one-way ANOVA. Tumor tissues were analyzed as described in the RT-qPCR, immunofluorescence, TBARS, and lipidomics sections below.
We investigated the efficacy of IKE in vivo in male NCG mice bearing SUDHL6 subcutaneous xenografts. […] During the experimental period, mouse weight and tumor volume were measured daily to determine IKE's antitumor effect and possible toxicity. Tumor growth was calculated as the fold change relative to original tumor volume on day 0 before the first dose (FIG. 4C). […]

A short description of series [3]: Erastin and IKE solubility measurements (nephelometry). The series is classed as physicochemical. On the procedure:
Solubility measurement samples were prepared in a 96-well Corning Costar plate with two at 1% and 5% DMSO v/v with a total sample volume of 200 μL in MilliQ water. A BMG Labtech NEPHELOstar nephelometer was used to measure turbidity of the samples with the following parameters per the instrument manufacturer: Gain=80, Laser Focus=2.50 mm, and Laser Intensity=90%. Samples were shaken in the nephelometer by orbital shaking for 3 s prior to the turbidity measurement. Sample values were blanked in the instrument software using the corresponding water and DMSO condition values. Turbidity 4000 NTU Calibration Standard-Formazin (Millipore-Sigma) was used as a positive control for all turbidity measurements. The turbidity of each sample was measured within 20 minutes of initial preparation. After the initial measurement, the sample plates were covered with aluminum sealing film and allowed to sit overnight at room temperature prior to re-measuring.

As for `CC(C)Oc1ccc(C(=O)Cn2ccnc2)cc1-n1c(CN2CCN(C(=O)COc3ccc(Cl)cc3)CC2)nc2ccccc2c1=O` [IKE, Imidazole ketone erastin], the “MDA increase (TBARS assay, MDA-TBA adducts' fluorescence)” value in series [1] (23 mg/kg daily for 14 days) is listed as 1.4 fold; in series [1] (40 mg/kg daily for 14 days), 1.8 fold. For the same compound, the mouse weight entry in series [2] (23 mg/kg daily) and in series [2] (40 mg/kg daily) was “weight loss” throughout. The “water solubility (in words)” value in series [3] was “soluble under acidic aqueous conditions, but not to the same degree under neutral aqueous conditions”.
